According to patent US20100298141A1, “SUBSTITUTED PYRIDINE N-OXIDE HERBICIDES” (E. I. DU PONT DE NEMOURS AND COMPANY, priority 2007, published 2010):

Columns and labels:
green foxtail = assay: Test C pre-/postemergence test; type: in vivo, Setaria viridis; details: Postemergence; for Plant response rating, Foxtail, Green: scale 0 to 100, 0 no effect, 100 complete control
Source text: (§1) Seeds of plant species selected from blackgrass (Alopecurus myosuroides), downy brome (Bromus tectorum), green foxtail (Setaria viridis), Italian ryegrass (Lolium multiflorum), wheat (Triticum aestivum), wild oat (Avena fatua), catchweed bedstraw (Galium aparine), Russian thistle (Salsola kali), […] (Cynodon dactylon), Surinam grass (Brachiaria decumbens), cocklebur (Xanthium strumarium), corn (Zea mays), crabgrass (Digitaria sanguinalis), woolly cupgrass (Eriochloa villosa), giant foxtail (Setaria faberii), Goosegrass (Eleusin indica), johnsongrass (Sorghum halepense), kochia (Kochia scoparia), lambsquarters (Chenopodium album), morningglory (Ipomoea coccinea), eastern black nightshade (Solanum ptycanthum), yellow nutsedge (Cyperus esculentus), pigweed (Amaranthus retroflexus), common ragweed (Ambrosia elation), soybean (Glycine max), common (oilseed) sunflower (Helianthus annuus), and velvetleaf (Abutilon theophrasti) were planted and treated preemergence with test chemicals formulated in a non-phytotoxic solvent mixture which included a surfactant. At the same time, plants selected from these crop and weed species and also winter barley (Hordeum vulgare), canarygrass (Phalaris minor), and chickweed (Stellaria media) were treated with postemergence applications of some of the test chemicals formulated in the same manner. Plants ranged in height from 2 to 18 cm (1- to 4-leaf stage) for postemergence treatments. […] At time of treatment, test pots were flooded to 3 cm above the soil surface, treated by application of test compounds directly to the paddy water, and then maintained at that water depth for the duration of the test. […] A dash (-) response means no test result.

johnsongrass = assay: Test C pre-/postemergence test; type: in vivo, Sorghum halepense; details: for Plant response rating, Johnsongrass: scale 0 to 100, 0 no effect, 100 complete control
Source text: as §1

crabgrass [1] = assay: Test C pre-/postemergence test; type: in vivo, Digitaria sanguinalis; details: for Plant response rating, Crabgrass, Large: scale 0 to 100, 0 no effect, 100 complete control
Source text: as §1

velvetleaf = assay: Test A pre-/postemergence greenhouse test; type: in vivo, Abutilon theophrasti; details: for Velvetleaf plant response rating: 0 to 100 scale
Summary of the method: (§2)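 Herbicidal effect is a visual injury score given about ten days post-treatment by comparison with untreated controls. Preemergence plots received a directed spray onto sown loam–sand soil; postemergence plants, at the one- to two-leaf stage and 2–10 cm tall, were sprayed at the same time.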

soybean = assay: Test C pre-/postemergence test; type: in vivo, Glycine max; details: for Plant response rating, Soybean: scale 0 to 100, 0 no effect, 100 complete control
Source text: as §1

corn [2] = assay: Test C pre-/postemergence test; type: in vivo, Zea mays; details: for Plant response rating, Corn: scale 0 to 100, 0 no effect, 100 complete control
Source text: as §1

corn [3] = assay: Test A pre-/postemergence greenhouse test; type: in vivo, Zea mays; details: for Corn plant response rating: 0 to 100 scale
Summary of the method: as §2

crabgrass [4] = assay: Test A pre-/postemergence greenhouse test; type: in vivo, Digitaria sanguinalis; details: for Crabgrass, Large plant response rating: 0 to 100 scale
Summary of the method: as §2

Italian ryegrass = assay: Test C pre-/postemergence test; type: in vivo, Lolium multiflorum; details: Postemergence; for Plant response rating, Ryegrass, Italian: scale 0 to 100, 0 no effect, 100 complete control
Source text: as §1

yellow nutsedge = assay: Test C pre-/postemergence test; type: in vivo, Cyperus esculentus; details: for Plant response rating, Nutsedge, Yellow: scale 0 to 100, 0 no effect, 100 complete control
Source text: as §1

bermudagrass = assay: Test C pre-/postemergence test; type: in vivo, Cynodon dactylon; details: for Plant response rating, Bermudagrass: scale 0 to 100, 0 no effect, 100 complete control
Source text: as §1

barnyardgrass = assay: Test A pre-/postemergence greenhouse test; type: in vivo, Echinochloa crus-galli; details: for Barnyardgrass plant response rating: 0 to 100 scale
Summary of the method: as §2

pigweed = assay: Test C pre-/postemergence test; type: in vivo, Amaranthus retroflexus; details: for Plant response rating, Pigweed: scale 0 to 100, 0 no effect, 100 complete control
Source text: as §1

Goosegrass = assay: Test C pre-/postemergence test; type: in vivo, Eleusin indica; details: for Plant response rating, Goosegrass: scale 0 to 100, 0 no effect, 100 complete control
Source text: as §1

[5] = 31 g ai/ha, Preemergence, scale 0 to 100
[6] = 62 g ai/ha, preemergence, scale 0 (no effect) to 100 (complete control)
[7] = preemergence, 125 g ai/ha, scale 0 (no effect) to 100 (complete control)
[8] = Postemergence, 125 g ai/ha, 0 is no effect, 100 is complete control
[9] = Postemergence, 500 g ai/ha, 0 is no effect, 100 is complete control
[10] = Preemergence, 125 g ai/ha, 0 no effect, 100 complete control
[11] = Preemergence, 500 g ai/ha, 0 to 100 scale where 0 is no effect and 100 is complete control

`Cn1nc(C(F)(F)F)c(C[S+]([O-])c2ccc(Cl)c[n+]2[O-])c1OC(F)F` (centres unmarked) [Compound 6] was tested, and the “Plant response rating (0 to 100), Foxtail, Green” value (green foxtail; 31 g ai/ha) was 30, the “Plant response rating, Foxtail, Green” value (green foxtail; 62 g ai/ha) was 55 and the “Plant response rating, Foxtail, Green” value (green foxtail; 125 g ai/ha) was 70. The “Plant response rating, Foxtail, Green” value (green foxtail; 250 g ai/ha) was 70, the “Johnsongrass plant response rating” value (johnsongrass; [5]) was 65 and the “Johnsongrass plant response rating” value (johnsongrass; [6]) was 98. For the same molecule, the “Plant response rating (0 to 100), Johnsongrass” value (johnsongrass; Postemergence, 31 g ai/ha) was 0, the “Plant response rating, Johnsongrass” value (johnsongrass; Postemergence, 62 g ai/ha) was 0 and the “Plant response rating, Johnsongrass” value (johnsongrass; Postemergence, 125 g ai/ha) was 30. For the same molecule, the “Plant response rating, Johnsongrass” value (johnsongrass; Postemergence, 250 g ai/ha) was 35, the “Plant response rating (0 to 100), Johnsongrass” value (johnsongrass; Preemergence, 250 g ai/ha) was 100 and the “Johnsongrass plant response rating” value (johnsongrass; [7]) was 98. For the same molecule, the “Crabgrass, Large plant response rating” value (crabgrass [1]; [5]) was 98, the “Crabgrass, Large plant response rating” value (crabgrass [1]; [6]) was 100 and the “Plant response rating (0 to 100), Crabgrass, Large” value (crabgrass [1]; Postemergence, 31 g ai/ha) was 5. For the same molecule, the “Plant response rating, Crabgrass, Large” value (crabgrass [1]; Postemergence, 62 g ai/ha) was 10, the “Plant response rating, Crabgrass, Large” value (crabgrass [1]; Postemergence, 125 g ai/ha) was 40 and the “Plant response rating, Crabgrass, Large” value (crabgrass [1]; Postemergence, 250 g ai/ha) was 45. For the same molecule, the “Plant response rating (0 to 100), Crabgrass, Large” value (crabgrass [1]; Preemergence, 250 g ai/ha) was 100, the “Crabgrass, Large plant response rating” value (crabgrass [1]; [7]) was 100 and the “Velvetleaf plant response rating” value (velvetleaf; [8]) was 50. For the same molecule, the “Velvetleaf plant response rating” value (velvetleaf; [9]) was 80, the “Velvetleaf plant response rating” value (velvetleaf; [10]) was 90 and the “Plant response rating, Velvetleaf” value (velvetleaf; [11]) was 100. The “Soybean plant response rating” value (soybean; [5]) was 0, the “Soybean plant response rating” value (soybean; [6]) was 0 and the “Plant response rating (0 to 100), Soybean” value (soybean; Postemergence, 31 g ai/ha) was 5. The “Plant response rating (0 to 100), Soybean” value (soybean; Postemergence, 62 g ai/ha) was 60, the “Plant response rating, Soybean” value (soybean; Postemergence, 125 g ai/ha) was 70 and the “Plant response rating, Soybean” value (soybean; Postemergence, 250 g ai/ha) was 90. The “Plant response rating (0 to 100), Soybean” value (soybean; Preemergence, 250 g ai/ha) was 50, the “Soybean plant response rating” value (soybean; [7]) was 0 and the “Corn plant response rating” value (corn [2]; [5]) was 0. The “Corn plant response rating” value (corn [2]; [6]) was 60, the “Plant response rating (0 to 100), Corn” value (corn [2]; Postemergence, 31 g ai/ha) was 0 and the “Plant response rating, Corn” value (corn [2]; Postemergence, 62 g ai/ha) was 0. The “Plant response rating, Corn” value (corn [2]; Postemergence, 125 g ai/ha) was 0, the “Plant response rating, Corn” value (corn [2]; Postemergence, 250 g ai/ha) was 0 and the “Plant response rating (0 to 100), Corn” value (corn [2]; Preemergence, 250 g ai/ha) was 98. For the same molecule, the “Corn plant response rating” value (corn [2]; [7]) was 60, the “Corn plant response rating” value (corn [3]; [8]) was 60 and the “Corn plant response rating” value (corn [3]; [9]) was 80. The “Corn plant response rating” value (corn [3]; [10]) was 80, the “Plant response rating, Corn” value (corn [3]; [11]) was 90 and the “Crabgrass, Large plant response rating” value (crabgrass [4]; [8]) was 70. For the same molecule, the “Crabgrass, Large plant response rating” value (crabgrass [4]; [9]) was 90, the “Crabgrass, Large plant response rating” value (crabgrass [4]; [10]) was 100 and the “Plant response rating, Crabgrass, Large” value (crabgrass [4]; [11]) was 100. The “Plant response rating (0 to 100), Ryegrass, Italian” value (Italian ryegrass; 31 g ai/ha) was 0, the “Plant response rating (0 to 100), Ryegrass, Italian” value (Italian ryegrass; 62 g ai/ha) was 50 and the “Plant response rating, Ryegrass, Italian” value (Italian ryegrass; 125 g ai/ha) was 85. The “Plant response rating, Ryegrass, Italian” value (Italian ryegrass; 250 g ai/ha) was 90, the “Nutsedge, Yellow plant response rating” value (yellow nutsedge; [5]) was 0 and the “Nutsedge, Yellow plant response rating” value (yellow nutsedge; [6]) was 20. For the same molecule, the “Plant response rating (0 to 100), Nutsedge, Yellow” value (yellow nutsedge; Postemergence, 31 g ai/ha) was 0, the “Plant response rating, Nutsedge, Yellow” value (yellow nutsedge; Postemergence, 62 g ai/ha) was 0 and the “Plant response rating, Nutsedge, Yellow” value (yellow nutsedge; Postemergence, 125 g ai/ha) was 0. For the same molecule, the “Plant response rating, Nutsedge, Yellow” value (yellow nutsedge; Postemergence, 250 g ai/ha) was 20, the “Plant response rating (0 to 100), Nutsedge, Yellow” value (yellow nutsedge; Preemergence, 250 g ai/ha) was 98 and the “Nutsedge, Yellow plant response rating” value (yellow nutsedge; [7]) was 80. For the same molecule, the “Bermudagrass plant response rating” value (bermudagrass; [5]) was 98, the “Bermudagrass plant response rating” value (bermudagrass; [6]) was 98 and the “Plant response rating (0 to 100), Bermudagrass” value (bermudagrass; Postemergence, 31 g ai/ha) was 0. For the same molecule, the “Plant response rating, Bermudagrass” value (bermudagrass; Postemergence, 62 g ai/ha) was 10, the “Plant response rating, Bermudagrass” value (bermudagrass; Postemergence, 125 g ai/ha) was 50 and the “Plant response rating, Bermudagrass” value (bermudagrass; Postemergence, 250 g ai/ha) was 80. The “Plant response rating (0 to 100), Bermudagrass” value (bermudagrass; Preemergence, 250 g ai/ha) was 100, the “Bermudagrass plant response rating” value (bermudagrass; [7]) was 100 and the “Barnyardgrass plant response rating” value (barnyardgrass; [8]) was 80. The “Barnyardgrass plant response rating” value (barnyardgrass; [9]) was 90, the “Barnyardgrass plant response rating” value (barnyardgrass; [10]) was 100 and the “Plant response rating, Barnyardgrass” value (barnyardgrass; [11]) was 100. For the same molecule, the “Pigweed plant response rating” value (pigweed; [6]) was 100, the “Plant response rating (0 to 100), Pigweed” value (pigweed; Postemergence, 31 g ai/ha) was 0 and the “Plant response rating (0 to 100), Pigweed” value (pigweed; Postemergence, 62 g ai/ha) was 0. For the same molecule, the “Plant response rating, Pigweed” value (pigweed; Postemergence, 125 g ai/ha) was 0, the “Plant response rating, Pigweed” value (pigweed; Postemergence, 250 g ai/ha) was 0 and the “Plant response rating (0 to 100), Pigweed” value (pigweed; Preemergence, 250 g ai/ha) was 100. For the same molecule, the “Goosegrass plant response rating” value (Goosegrass; [5]) was 98, the “Goosegrass plant response rating” value (Goosegrass; [6]) was 100 and the “Plant response rating (0 to 100), Goosegrass” value (Goosegrass; Postemergence, 31 g ai/ha) was 0. The “Plant response rating, Goosegrass” value (Goosegrass; Postemergence, 62 g ai/ha) was 0, the “Plant response rating, Goosegrass” value (Goosegrass; Postemergence, 125 g ai/ha) was 20 and the “Plant response rating, Goosegrass” value (Goosegrass; Postemergence, 250 g ai/ha) was 45. The “Plant response rating (0 to 100), Goosegrass” value (Goosegrass; Preemergence, 250 g ai/ha) was 100 and the “Goosegrass plant response rating” value (Goosegrass; [7]) was 100.
